Measured values reported in paper PMC6681824 (Biochemistry, 2019).
“And” between values parts separate entries of the source, which are not always exact repeats. Equal entries are not always repeated. Where two headings read alike, the source gives them in different places.

How the values were obtained:
pol η = target: T1, pol η (Homo sapiens, UniProt Q9Y253); type: biochemical; details: for Kd: read-out: apparent Kd; for increase in G·T misincorporation rate constant (kpol), W versus B: G opposite T, W sequence compared to B sequence
T1 sequence (Q9Y253 1-713): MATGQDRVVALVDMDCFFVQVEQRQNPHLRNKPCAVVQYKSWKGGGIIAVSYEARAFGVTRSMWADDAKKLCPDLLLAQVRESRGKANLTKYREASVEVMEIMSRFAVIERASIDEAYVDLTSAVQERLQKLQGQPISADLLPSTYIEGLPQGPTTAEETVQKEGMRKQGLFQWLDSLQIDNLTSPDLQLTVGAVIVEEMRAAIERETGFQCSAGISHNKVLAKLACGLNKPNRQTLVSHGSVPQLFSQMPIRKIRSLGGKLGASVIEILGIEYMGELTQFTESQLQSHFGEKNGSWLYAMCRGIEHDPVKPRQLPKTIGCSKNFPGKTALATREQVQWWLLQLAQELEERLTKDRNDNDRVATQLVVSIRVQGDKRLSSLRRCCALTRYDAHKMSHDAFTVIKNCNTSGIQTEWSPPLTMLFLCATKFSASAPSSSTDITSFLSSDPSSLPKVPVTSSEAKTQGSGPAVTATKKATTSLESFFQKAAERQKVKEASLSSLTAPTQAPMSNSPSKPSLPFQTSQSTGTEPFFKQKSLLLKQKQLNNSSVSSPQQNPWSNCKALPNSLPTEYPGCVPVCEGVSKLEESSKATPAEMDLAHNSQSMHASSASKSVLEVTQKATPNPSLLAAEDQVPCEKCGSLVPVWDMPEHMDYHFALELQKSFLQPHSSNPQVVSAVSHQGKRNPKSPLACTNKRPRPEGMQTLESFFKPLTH

[1] = Potentiometric titration of leaving-group acids; type: physicochemical; details: 0.1 M KCl, 25 °C
[2] = A opposite T (correct), B sequence
[3] = A opposite T (correct), W sequence
[4] = G opposite T (mispair), B sequence
[5] = G opposite T (mispair), W sequence

Kd (pol η; [2]) [µM] | Kd (pol η; [3]) [µM] | kpol (chemical misincorporation rate constant) (pol η; [4]) [s⁻¹] | kpol (chemical misincorporation rate constant) (pol η; [5]) [s⁻¹] | increase in G·T misincorporation rate constant (kpol), W versus B (pol η) | Kd (pol η; [4]) [µM] | Kd (pol η; [5]) [µM] | SMILES | also measured
190 ± 80 | 140 ± 20 |  |  |  |  |  | Nc1ncnc2c1ncn2[C@H]1CC(O)[C@@H](COP(=O)(O)OP(=O)(O)C(F)P(=O)(O)O)O1 (stereo partly shown) [dATP-CHF] | 
9.4 ± 3.1 | 7.1 ± 2.1 |  |  |  |  |  | Nc1ncnc2c1ncn2[C@H]1C[C@H](O)[C@@H](COP(=O)(O)OP(=O)(O)OP(=O)(O)O)O1 [dATP] | 

The next lines start with the compound.

SMILES | Kd (pol η; [2]) [µM] | Kd (pol η; [3]) [µM] | kpol (chemical misincorporation rate constant) (pol η; [4]) [s⁻¹] | kpol (chemical misincorporation rate constant) (pol η; [5]) [s⁻¹] | increase in G·T misincorporation rate constant (kpol), W versus B (pol η) | Kd (pol η; [4]) [µM] | Kd (pol η; [5]) [µM] | also measured
Nc1nc2c(ncn2C2CC(O)C(COP(=O)(O)OP(=O)(O)C(F)P(=O)(O)O)O2)c(=O)[nH]1 (stereo not shown) [dGTP-CHF] |  |  | 0.032 ± 0.005 | 0.12 ± 0.00 | 3.8 fold and 4 fold | 370 ± 60 | 390 ± 20 | increase in G·T misincorporation rate constant (kpol), W versus B (pol η; listed as CHF-dG): 3–4 fold
Nc1nc2c(ncn2[C@H]2C[C@H](O)[C@@H](COP(=O)(O)OP(=O)(O)OP(=O)(O)O)O2)c(=O)[nH]1 [dGTP] |  |  | 0.21 ± 0.02 | 0.86 ± 0.02 | ~ 4 fold and 3–4 fold and 4 fold | 30 ± 3 | 20 ± 4 | 
O=P(O)(O)NP(=O)(O)O [imidodiphosphoric acid] |  |  |  |  |  |  |  | pKa1 [1]: 2.01; pKa2 [1]: 2.81; pKa3 [1]: 7.11; pKa4 (soln) ([1]; imidodiphosphoric acid (NH leaving group)): 9.70
